Reference: patent publication US5420140A, “Difluorinated quinolones useful for treating bacterial infections” (Bouchara S.A., priority 1991, dated 1995)
Values after ≈ are worked out from the molar mass of the structure shown. Where two headings read alike, the source gives them in different places.

Key:
[1] = tested on: Streptococcus faecalis ATCC 8043; experiment: Determination of MIC and MBC by microdilution method, Streptococcus faecalis ATCC 8043; format: cell-based; conditions: Enterococcus faecalis; for MIC: read-out: Minimal inhibitory concentration (MIC)
Experimental: (§1) The compound have been tested towards 7 reference strains:
Streptococcus faecalis ATCC 8043
(§2) The preparation of these mother liquors has been performed and vary depending on the molecules as a function of the solubility criterions. Inoculation has been done by adding in each will, 10 μl of a dilution in saline of 18 hours old broth in a brain-heart broth, such as each well contains about 10^6 bacterias/ml. […]

S. aureus CB-951 = experiment: Determination of MIC and MBC by microdilution method, S. aureus CB-951; format: cell-based, Staphylococcus aureus; conditions: Staphylococcus aureus; for MIC: CB951, 18 h, read-out: Minimal inhibitory concentration (MIC)
Experimental: as §1
Staphylococcus aureus CB 951
(§3) The determination of minimal inhibitory concentrations (MIC) has been performed using a microdution method (microplates and inoculator Dynatech) in liquid medium (MUELLER-HINTON broth) under a volume of 100 μl and for a range of concentrations from 128 to 0.06 mg/l, prepared from a mother liquor of antibiotics titrating 512 mg/l. The preparation of these mother liquors has been performed and vary depending on the molecules as a function of the solubility criterions. Inoculation has been done by adding in each will, 10 μl of a dilution in saline of 18 hours old broth in a brain-heart broth, such as each well contains about 10^6 bacterias/ml.
(§4) The Minimal Inhibitory Concentrations are read as the first concentration of antibiotic which will not give a growth macroscopically detectable after 18 hours incubating at 37°.

[2] = tested on: Acinetobacter Baumanii ATCC 17904; experiment: Determination of MIC and MBC by microdilution method, Acinetobacter; format: cell-based; conditions: Acinetobacter baumannii; for MIC: ATCC17904, 18 h, read-out: Minimal inhibitory concentration (MIC)
Experimental: The compound have been tested towards 7 reference strains: […]
as §3, §4

[3] = tested on: Staphylococcus aureus ATCC 25923; experiment: Determination of MIC and MBC by microdilution method, Staphylococcus aureus ATCC 25923; format: cell-based; conditions: Staphylococcus aureus; for MIC: ATCC25923, 18 h, read-out: Minimal inhibitory concentration (MIC)
Experimental: as §1
Staphylococcus aureus ATCC 25923
as §3, §4

[4] = tested on: Pseudomonas aeruginosa ATCC 22853; experiment: Determination of MIC and MBC by microdilution method, Pseudomonas aeruginosa ATCC 22853; format: cell-based; conditions: Pseudomonas aeruginosa; for MIC: ATCC22853, 18 h, read-out: Minimal inhibitory concentration (MIC)
Experimental: as §1
Pseudomonas aeruginosa ATCC 22853
as §2

[5] = tested on: Escherichia coli ATCC 25922; experiment: Determination of MIC and MBC by microdilution method, Escherichia coli ATCC 25922; format: cell-based; conditions: Escherichia coli, ATCC25922, E. coli ATCC 25922; for MIC: Mueller-Hinton broth, 18 hours at 37°, read-out: Minimal inhibitory concentration (MIC); for MBC: read-out: Minimal bactericidal concentration (MBC)
Experimental: as §1
Escherichia coli ATCC 25922
as §3, §4

[6] = ATCC8043, S. faecalis ATCC 8043, read-out: Minimal bactericidal concentration (MBC)
[7] = ATCC8043, S. faecalis ATCC 8043, Mueller-Hinton broth, 18 hours at 37°
[8] = S. aureus CB-951, methicillino, erythromycinolincomycino, pefloxacino resistant, Mueller-Hinton broth, 18 hours at 37°
[9] = CB951, S. aureus CB-951, methicillino, erythromycinolincomycino, pefloxacino resistant, read-out: Minimal bactericidal concentration (MBC)
[10] = Acinetobacter Baumanii ATCC 17904, Mueller-Hinton broth, 18 hours at 37°
[11] = ATCC17904, Acinetobacter Baumanii ATCC 17904, read-out: Minimal bactericidal concentration (MBC)
[12] = S. aureus ATCC 25923, Mueller-Hinton broth, 18 hours at 37°
[13] = ATCC25923, S. aureus ATCC 25923, read-out: Minimal bactericidal concentration (MBC)
[14] = P. aeruginosa ATCC 22853, Mueller-Hinton broth, 18 hours at 37°
[15] = ATCC22853, P. aeruginosa ATCC 22853, read-out: Minimal bactericidal concentration (MBC)

SMILES	MBC [1, 6]	MIC [1, 7]	MIC (S. aureus CB-951; [8])	MBC (S. aureus CB-951; [9])	MIC [5]	MBC [5]	MIC [2, 10]	MBC [2, 11]	MIC [3, 12]	MBC [3, 13]	MIC [4, 14]	MBC [4, 15]	other results
O=C(O)c1cn(C2CC2)c2cc(N3CCNCC3)c(F)cc2c1=O [Ciprofloxacine, reference compound]	–	–	–	–	–	–	–	–	–	–	–	–	MIC ([1]; ATCC8043, 18 h): 0.25 mg/L (≈ 0.754 µM); MBC ([1]; ATCC8043, read-out: Minimal bactericidal concentration (MBC)): 0.25 mg/L (≈ 0.754 µM); MIC (S. aureus CB-951): 4 mg/L (≈ 12.1 µM); MBC (S. aureus CB-951; CB951, read-out: Minimal bactericidal concentration (MBC)): 4 mg/L (≈ 12.1 µM); MIC [2]: 0.06 mg/L (≈ 0.181 µM); MBC ([2]; ATCC17904, read-out: Minimal bactericidal concentration (MBC)): 0.06 mg/L (≈ 0.181 µM); MIC [3]: 0.25 mg/L (≈ 0.754 µM); MBC ([3]; ATCC25923, read-out: Minimal bactericidal concentration (MBC)): 0.25 mg/L (≈ 0.754 µM); MIC [4]: 0.12 mg/L (≈ 0.362 µM); MBC ([4]; ATCC22853, read-out: Minimal bactericidal concentration (MBC)): 0.25 mg/L (≈ 0.754 µM)
CCn1cc(C(=O)O)c(=O)c2cc(F)c(N3CCC(CNC(=O)CCO)CC3)c(F)c21 [Compound 2, 7-(4-(3-hydroxypropionylaminomethyl)piperidinyl-1) 6,8-difluoro 1-ethyl 4-oxo 1,4-dihydroquinoleinyl-3 carboxylic acid]	4 mg/L (≈ 9.14 µM)	4 mg/L (≈ 9.14 µM)	4 mg/L (≈ 9.14 µM)	4 mg/L (≈ 9.14 µM)	8 mg/L (≈ 18.3 µM)	8 mg/L (≈ 18.3 µM)	2 mg/L (≈ 4.57 µM)	4 mg/L (≈ 9.14 µM)	0.5 mg/L (≈ 1.14 µM)	1 mg/L (≈ 2.29 µM)	> 32 mg/L	> 32 mg/L	–
CCn1cc(C(=O)O)c(=O)c2cc(F)c(N3CCC(CNC(=O)Nc4ccc(F)cc4F)CC3)c(F)c21 [Compound 18, 7-[4-(2,4-difluorophenyl)aminocarbonylaminomethylpiperidinyl-1] 6,8-difluoro 1-ethyl]	2 mg/L (≈ 3.84 µM)	2 mg/L (≈ 3.84 µM)	0.25 mg/L (≈ 0.48 µM)	0.25 mg/L (≈ 0.48 µM)	2 mg/L (≈ 3.84 µM)	4 mg/L (≈ 7.69 µM)	≤ 0.12 mg/L	≤ 0.12 mg/L	≤ 0.12 mg/L	≤ 0.12 mg/L	> 16 mg/L	> 16 mg/L	–
CCn1cc(C(=O)O)c(=O)c2cc(F)c(N3CCC(CNC(=O)Nc4ccccc4F)CC3)c(F)c21 [Compound 19, 7-[4-(2-fluorophenyl)aminocarbonylaminomethylpiperidinyl-1] 6,8-difluoro 1-ethyl]	2 mg/L (≈ 3.98 µM)	2 mg/L (≈ 3.98 µM)	0.03 mg/L (≈ 0.0597 µM)	0.06 mg/L (≈ 0.119 µM)	8 mg/L (≈ 15.9 µM)	8 mg/L (≈ 15.9 µM)	–	–	–	–	> 32 mg/L	> 32 mg/L	–
NCC1CCN(c2c(F)cc3c(=O)c(C(=O)O)cn(Cc4ccc(F)cc4)c3c2F)CC1 [Compound 4, 7-(4-aminomethylpiperidinyl-1) 6,8-difluoro 1-(4-fluorobenzyl) 4-oxo 1,4-dihydroquinoleinyl-3 carboxylic acid]	12 mg/L (≈ 26.9 µM)	> 12 mg/L	> 12 mg/L	12 mg/L (≈ 26.9 µM)	> 12 mg/L	> 12 mg/L	12 mg/L (≈ 26.9 µM)	> 12 mg/L	12 mg/L (≈ 26.9 µM)	12 mg/L (≈ 26.9 µM)	> 12 mg/L	> 12 mg/L	–
CCn1cc(C(=O)O)c(=O)c2cc(F)c(N3CCC(CNC(=O)Nc4ccc(C)cc4)CC3)c(F)c21 [Compound 12]	4 mg/L (≈ 8.02 µM)	4 mg/L (≈ 8.02 µM)	0.25 mg/L (≈ 0.501 µM)	1 mg/L (≈ 2.01 µM)	> 16 mg/L	> 16 mg/L	0.06 mg/L (≈ 0.12 µM)	0.06 mg/L (≈ 0.12 µM)	0.06 mg/L (≈ 0.12 µM)	0.06 mg/L (≈ 0.12 µM)	> 16 mg/L	> 16 mg/L	–
NCC1CCN(c2c(F)cc3c(=O)c(C(=O)O)cn(CCF)c3c2F)CC1 [Compound 3, 7-(4-aminomethylpiperidinyl-1) 6,8-difluoro 1-fluoroethyl 4-oxo 1,4-dihydroquinoleinyl-3 carboxylic acid]	4 mg/L (≈ 10.4 µM)	2 mg/L (≈ 5.22 µM)	4 mg/L (≈ 10.4 µM)	8 mg/L (≈ 20.9 µM)	2 mg/L (≈ 5.22 µM)	2 mg/L (≈ 5.22 µM)	2 mg/L (≈ 5.22 µM)	4 mg/L (≈ 10.4 µM)	0.5 mg/L (≈ 1.3 µM)	1 mg/L (≈ 2.61 µM)	8 mg/L (≈ 20.9 µM)	16 mg/L (≈ 41.7 µM)	–
CCn1cc(C(=O)O)c(=O)c2cc(F)c(N3CCN(C)CC3)cc21 [Pefloxacine, reference compound]	1 mg/L (≈ 3 µM)	1 mg/L (≈ 3 µM)	4 mg/L (≈ 12 µM)	4 mg/L (≈ 12 µM)	0.06 mg/L (≈ 0.18 µM)	0.06 mg/L (≈ 0.18 µM)	0.06 mg/L (≈ 0.18 µM)	0.06 mg/L (≈ 0.18 µM)	0.12 mg/L (≈ 0.36 µM)	0.25 mg/L (≈ 0.75 µM)	2 mg/L (≈ 6 µM)	2 mg/L (≈ 6 µM)	–
CCn1cc(C(=O)O)c(=O)c2cc(F)c(N3CCC(CNC(=O)Nc4ccc(OC)cc4)CC3)c(F)c21 [Compound 16, 7-[4-(4-methoxyphenyl)aminocarbonylaminomethylpiperidinyl-1] 6,8-difluoro1-ethyl]	16 mg/L (≈ 31.1 µM)	8 mg/L (≈ 15.5 µM)	0.5 mg/L (≈ 0.972 µM)	1 mg/L (≈ 1.94 µM)	16 mg/L (≈ 31.1 µM)	16 mg/L (≈ 31.1 µM)	0.06 mg/L (≈ 0.117 µM)	0.03 mg/L (≈ 0.0583 µM)	0.06 mg/L (≈ 0.117 µM)	0.06 mg/L (≈ 0.117 µM)	> 16 mg/L	> 16 mg/L	–
CCC(=O)NCC1CCN(c2c(F)cc3c(=O)c(C(=O)O)cn(CC)c3c2F)CC1 [Compound 7, 7-[(4-propionylaminomethyl)piperidinyl-1] 6,8-difluoro 1-ethyl 4-oxo 1,4-dihydroquinoleinyl-3 carboxylic acid]	8 mg/L (≈ 19 µM)	8 mg/L (≈ 19 µM)	1 mg/L (≈ 2.37 µM)	1 mg/L (≈ 2.37 µM)	8 mg/L (≈ 19 µM)	8 mg/L (≈ 19 µM)	0.25 mg/L (≈ 0.593 µM)	0.5 mg/L (≈ 1.19 µM)	0.5 mg/L (≈ 1.19 µM)	0.51 mg/L (≈ 1.21 µM)	> 16 mg/L	> 16 mg/L	–
CCn1cc(C(=O)O)c(=O)c2cc(F)c(N3CCC(CNC(=O)Nc4ccc([N+](=O)[O-])cc4)CC3)c(F)c21 [Compound 17, 7-[4-(4-nitrophenyl)aminocarbonylaminomethylpiperidinyl-1] 6,8-difluoro 1-ethyl]	8 mg/L (≈ 15.1 µM)	4 mg/L (≈ 7.55 µM)	1 mg/L (≈ 1.89 µM)	1 mg/L (≈ 1.89 µM)	16 mg/L (≈ 30.2 µM)	> 16 mg/L	–	–	0.03 mg/L (≈ 0.0567 µM)	0.03 mg/L (≈ 0.0567 µM)	> 16 mg/L	> 16 mg/L	–
